Measured values taken from patent US6482921B1, “Uridyl peptide antibiotic (UPA) derivatives, their synthesis and use” (Essential Therapeutics, Inc., priority 1999, dated 2002).
In brackets after ≈: the same amount, converted by molar mass.

How the values were obtained:
Format in all cases: cell-based
[1] = system: Pasteurella multocida pm002; experiment: MIC broth microdilution, P. multocida pm002 (wild type)
[2] = system: Staphylococcus aureus ATCC 29213; experiment: MIC broth microdilution, S. aureus ATCC 29213 (wild type); conditions: S. aureus ATCC 29213
[3] = system: Escherichia Coli MC 4100 AcrAB UPA3r; experiment: MIC broth microdilution, E. coli MC 4100 AcrAB UPA3r (ΔAcrAB, UPA resistant); conditions: E. coli AcrAB UPA3^r
[4] = system: Escherichia Coli MC 4100; experiment: MIC broth microdilution, E. coli MC 4100 (wild type); conditions: E. coli MC 4100
[5] = system: Pseudomonas aeruginosa PAM 1020; experiment: MIC broth microdilution, P. aeruginosa PAM 1020 (wild type); conditions: P. aeruginosa PAM 1020
[6] = system: Pseudomonas aeruginosa PAM 1135; experiment: MIC broth microdilution, P. aeruginosa PAM 1135 (high level UPA resistance); conditions: P. aeruginosa PAM 1135 UPA1^r
[7] = system: Staphylococcus aureus 8325-4; experiment: MIC broth microdilution, S. aureus 8325-4 (wild type); conditions: S. aureus 8325-4
[8] = system: Pseudomonas aeruginosa PAM 1154; experiment: MIC broth microdilution, P. aeruginosa PAM 1154 (OprM::Hg); conditions: P. aeruginosa PAM 1154 OprM::Hg
[9] = system: Escherichia Coli MC 4100 AcrAB; experiment: MIC broth microdilution, E. coli MC 4100 AcrAB (ΔAcrAB); conditions: E. coli AcrAB
[10] = system: Pseudomonas aeruginosa PAM 1323; experiment: MIC broth microdilution, P. aeruginosa PAM 1323 (medium level UPA resistance)
Protocol: Compounds were tested against several panels of bacteria. In a first panel, Table 3, several strains of Pseudomonas aeruginosa, Escherichia coli and Staphylococcus aureus were employed as the target bacteria.
For the bacteria in Table 3, the assay was performed in Mueller-Hinton Broth (MHB) with a final bacterial inoculum of 5×10^5 CFU/ml and a final volume of 100 μl. Control drugs, including imipenem and pacidimycin 4, and the test compounds were prepared at a concentration which was twice the desired final concentration (256 μg/ml). Dilution of the controls and the test compounds was accomplished directly on the test plates by serial 2-fold dilution using a multi-channel pipette. Both a positive and a negative growth control was included in each plate.
The bacterial inocula were prepared as follows. Bacterial strains were grown overnight at 35° C. in MHB. […] The culture was then diluted 1:10 and allowed to grow for an additional one hour at 35° C. in a shaking incubator. The inocula were then prepared by diluting the early log phase (one hour) cultures 1:2000 with fresh MHB. A volume of 50 μl of the inocula was added to each well, resulting in an inoculum of approximately 5×10^5 CFU/ml. The exact inocula were determined by putting 10 μl of 10-fold serial dilution of the bacterial suspensions onto TSA. After overnight incubation at 35° C., colony-forming units were counted manually.
The microtiter plates were incubated for 20 hours at 35° C. and were then read using a microtiterplate reader (Molecular Devices) at 650 nm as well as being visually observed using a microtiterplate reading mirror.

Row | Structure (SMILES) | MIC (μg/ml) Broth microdilution [1] [µg/mL] | MIC (μg/ml) Broth microdilution [2] [µg/mL] | MIC (μg/ml) Broth microdilution [3] [µg/mL] | MIC (μg/ml) Broth microdilution [4] [µg/mL] | MIC (μg/ml) Broth microdilution [5] [µg/mL] | MIC (μg/ml) Broth microdilution [6] [µg/mL] | MIC (μg/ml) Broth microdilution [7] [µg/mL] | MIC (μg/ml) Broth microdilution [8] [µg/mL] | MIC (μg/ml) Broth microdilution [9] [µg/mL] | MIC (μg/ml) Broth microdilution [10] [µg/mL]
1 | CC(C(NC(=O)C(Cc1ccccc1)NC(=O)NC(Cc1ccc(O)cc1)C(=O)O)C(=O)NCC1CC(O)C(n2ccc(=O)[nH]c2=O)O1)N(C)C(=O)C(N)Cc1ccccc1 [Compound 100, 1-[5′-[(2S,3S)-N^2-[N-[[(1S)-1-Carboxy-4-hydroxyphenethyl]carbamoyl]-L-phenylalanyl]-N^3-L-phenylalanyl-N^3-methyl-2,3-diaminobutyramido]-3′,5′-dideoxy-α-L-arabinofuranosyl]uracil] | 256 (≈ 304 µM) | >512 | 2 (≈ 2.37 µM) | 8 (≈ 9.49 µM) | 32 (≈ 38 µM) | >512 | 512 (≈ 607 µM) | 8 (≈ 9.49 µM) | <1 | >512
2 | CC(C)CC(N)C(=O)N(C)C(C)C(NC(=O)C(Cc1ccccc1)NC(=O)NC(Cc1ccc(O)cc1)C(=O)O)C(=O)NCC1CC(O)C(n2ccc(=O)[nH]c2=O)O1 [Compound 101, 1-[5′-[(2S,3S)-N^2-[N-[[(1S)-1-Carboxy-4-hydroxyphenethyl]carbamoyl]-L-phenylalanyl]-N^3-L-leucyl-N^3-methyl-2,3-diaminobutyramido]-3′,5′-dideoxy-α-L-arabinofuranosyl]uracil] | >512 | >512 | 128 (≈ 158 µM) | >512 | 128 (≈ 158 µM) | >512 | >512 | 8 (≈ 9.89 µM) | 2 (≈ 2.47 µM) | >512
3 | CC(C(NC(=O)C(Cc1ccccc1)NC(=O)NC(Cc1ccc(O)cc1)C(=O)O)C(=O)NCC1CC(O)C(n2ccc(=O)[nH]c2=O)O1)N(C)C(=O)CN [Compound 102, 1-[5′-[(2S,3S)-N^2-[N-[[(1S)-1-Carboxy-4-hydroxyphenethyl]carbamoyl]-L-phenylalanyl]-N^3-glycyl-N^3-methyl-2,3-diaminobutyramido]-3′,5′-dideoxy-α-L-arabinofuranosyl]uracil] | 256 (≈ 340 µM) | >512 | 16 (≈ 21.3 µM) | 512 (≈ 680 µM) | 32 (≈ 42.5 µM) | >512 | 512 (≈ 680 µM) | 8 (≈ 10.6 µM) | <1 | 512 (≈ 680 µM)
4 | CSCCC(NC(=O)NC(Cc1ccc(O)cc1)C(=O)O)C(=O)NC(C(=O)NCC1CC(O)C(n2ccc(=O)[nH]c2=O)O1)C(C)N(C)C(=O)CN [Compound 104, 1-[5′[(2S,3S)-N^2-(N-[[(1S)-1-Carboxy-4-hydroxyphenethyl]carbamoyl]-L-methionyl]-N^3-glycyl-N^3-methyl-2,3-diaminobutyramidol-3′,5′-dideoxy-α-L-arabinofuranosyl]uracil] | 256 (≈ 347 µM) | >512 | 128 (≈ 174 µM) | <512 | 32 (≈ 43.4 µM) | >512 | >512 | 4 (≈ 5.43 µM) | 16 (≈ 21.7 µM) | <512
5 | CC(C(NC(=O)C(Cc1ccc(F)cc1)NC(=O)NC(Cc1ccc(O)cc1)C(=O)O)C(=O)NCC1CC(O)C(n2ccc(=O)[nH]c2=O)O1)N(C)C(=O)C(N)Cc1ccc(F)cc1 [Compound 105, 1-[5′[(2S,3S)-N^2-[N-[[(1S)-1-Carboxy-4-hydroxyphenethyl]carbamoyl]-L-4-fluorophenylalanyl]-N^3-L-4-fluorophenylalanyl-N^3-methyl-2,3-diaminobutyramido]-3′,5′-dideoxy-α-L-arabinofuranosyl]uracil] | 512 (≈ 583 µM) | >512 | 512 (≈ 583 µM) | 512 (≈ 583 µM) | 256 (≈ 291 µM) | 256 (≈ 291 µM) | >512 | 64 (≈ 72.8 µM) | 16 (≈ 18.2 µM) | 256 (≈ 291 µM)
6 | CC(C)CC(N)C(=O)N(C)C(C)C(NC(=O)C(Cc1ccc(F)cc1)NC(=O)NC(Cc1ccc(O)cc1)C(=O)O)C(=O)NCC1CC(O)C(n2ccc(=O)[nH]c2=O)O1 [Compound 107, 1-[5′[(2S,3S)-N^2-[N-[[(1S)-1-Carboxy-4-hydroxyphenethyl]carbamoyl]-L-4-fluorophenylalanyl]-N^3-L-leucyl-N^3-methyl-2,3-diaminobutyramido]-3′,5′-dideoxy-α-L-arabinofuranosyl]uracil] | >512 | >512 | 8 (≈ 9.67 µM) | 16 (≈ 19.3 µM) | 256 (≈ 310 µM) | >512 | >512 | 64 (≈ 77.4 µM) | <1 | >512
7 | CC(C)CC(N)C(=O)N(C)C(C)C(NC(=O)C(CC(C)C)NC(=O)NC(Cc1c[nH]c2ccccc12)C(=O)O)C(=O)NCC1CC(O)C(n2ccc(=O)[nH]c2=O)O1 [Compound 108, 1-[5′[(2S,3S)-N^2-[N-[[(1S)-1-Carboxy-2-indol-3-ylethyl]carbamoyl]-L-leucyl]-N^3-L-leucyl-N^3-methyl-2,3-diaminobutyramido]-3′,5′-dideoxy-α-L-arabinofuranosyl]uracil] | 512 (≈ 642 µM) | >512 | 16 (≈ 20.1 µM) | 256 (≈ 321 µM) | 256 (≈ 321 µM) | >512 | >512 | 32 (≈ 40.1 µM) | <1 | 512 (≈ 642 µM)
8 | CSCCC(NC(=O)NC(Cc1c[nH]c2ccccc12)C(=O)O)C(=O)NC(C(=O)NCC1CC(O)C(n2ccc(=O)[nH]c2=O)O1)C(C)N(C)C(=O)C(N)Cc1ccc(F)cc1 [Compound 110, 1-[5′-[(2S,3S)-N^2-[N-[[(1S)-1-Carboxy-2-indol-3-ylethyl]carbamoyl]-L-methionyl]-N^3-L-4-fluorophenylalanyl-N^3-methyl-2,3-diaminobutyramido]-3′,5′-dideoxy-α-L-arabinofuranosyl]uracil] | 512 (≈ 590 µM) | >512 | 512 (≈ 590 µM) | 512 (≈ 590 µM) | 64 (≈ 73.7 µM) | 256 (≈ 295 µM) | >512 | 32 (≈ 36.9 µM) | 16 (≈ 18.4 µM) | 256 (≈ 295 µM)
9 | CSCCC(NC(=O)NC(Cc1c[nH]c2ccccc12)C(=O)O)C(=O)NC(C(=O)NCC1CC(O)C(n2ccc(=O)[nH]c2=O)O1)C(C)N(C)C(=O)C(N)Cc1ccccc1 [Compound 111, 1-[5′-[(2S,3S)-N^2-[N-([(1S)-1-Carboxy-2-indol-3-ylethyl]carbamoyl]-L-methionyl]-N^3-L-phenylalanyl-N^3-methyl-2,3-diaminobutyramido]-3′,5′-dideoxy-α-L-arabinofuranosyl]uracil] | 512 (≈ 602 µM) | >512 | 512 (≈ 602 µM) | 512 (≈ 602 µM) | 128 (≈ 151 µM) | 256 (≈ 301 µM) | >512 | 16 (≈ 18.8 µM) | 8 (≈ 9.41 µM) | 256 (≈ 301 µM)
